Results taken from patent publication US20230233569A1 (Revolution Medicines, Inc., priority 2020, published 2023).
Where “and” joins values, the source holds several entries; their conditions need not be identical. Equal entries are not always repeated. Where two headings read alike, the source gives them in different places.

What was measured:
[1] = system: NCI-H358 (K-Ras G12C); experiment: CellTiter-Glo cell viability assay, 5-day treatment; type: cell-based; settings: Homo sapiens
Experimental: Protocol: CellTiter-Glo® Cell Viability Assay
Note—The following protocol describes a procedure for monitoring cell viability of K-Ras mutant cancer cell lines in response to a compound of the invention. Other RAS isoforms may be employed, though the number of cells to be seeded will vary based on cell line used.
Test compounds (132.5 nL) were directly dispensed into the assay plates containing cells. […] On day 5, assay plates and their contents were equilibrated to room temperature for approximately 30 minutes. […] Luminescence was measured using the PerkinElmer Enspire. Data were normalized by the following: (Sample signal/Avg. DMSO)*100. The data were fit using a four-parameter logistic fit.
Test compounds (132.5 nl) were directly dispensed into the assay plates containing cells. […] On day 5, assay plates and their contents were equilibrated to room temperature for approximately 30 minutes. […] Luminescence was measured using the PerkinElmer Enspire. Data were normalized by the following: (Sample signal/Avg. DMSO)*100. The data were fit using a four-parameter logistic fit.

[2] = target: KRAS G13D (Homo sapiens, UniProt P01116+P62937, G13D); experiment: Disruption of BRAF RBD interaction with Ras (FRET / MOA assay, with Cyclophilin A); type: biochemical; settings: KRAS G13D; read-out: KRAS G13D FRET data IC50
Chain of KRAS G13D (P01116 1-169 isoform P01116-2 G13D limits assumed): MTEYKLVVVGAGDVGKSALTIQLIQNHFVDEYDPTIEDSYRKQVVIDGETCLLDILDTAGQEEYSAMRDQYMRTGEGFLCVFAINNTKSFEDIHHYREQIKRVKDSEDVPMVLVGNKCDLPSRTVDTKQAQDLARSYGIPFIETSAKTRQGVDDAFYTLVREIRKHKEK
Chain of KRAS G13D (P62937 whole entry): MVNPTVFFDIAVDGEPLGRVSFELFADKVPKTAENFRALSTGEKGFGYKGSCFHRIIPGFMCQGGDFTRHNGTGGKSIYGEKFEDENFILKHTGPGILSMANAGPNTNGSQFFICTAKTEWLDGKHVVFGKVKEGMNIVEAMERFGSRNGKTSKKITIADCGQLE
Text: (§1) This protocol may also be executed substituting other Ras proteins or nucleotides.
(§2) The purpose of this biochemical assay was to measure the ability of test compounds to facilitate ternary complex formation between a nucleotide-loaded K-Ras isoform and Cyclophilin A; the resulting ternary complex disrupts binding to a BRAF^RBD construct, inhibiting K-Ras signaling through a RAF effector. Data is reported as IC50 values.
(§3) Compound was present in plate wells as a 10-point 3-fold dilution series starting at a final concentration of 30 μM. After incubation at 25° C. for 3 hours, a mixture of Anti-His Eu-W1024 and anti-GST allophycocyanin was then added to assay sample wells at final concentrations of 10 nM and 50 nM, respectively, and the reaction incubated for an additional 1.5 hours. […] Compounds that facilitate disruption of a K-Ras:RAF complex were identified as those eliciting a decrease in the TR-FRET ratio relative to DMSO control wells.
(§4) The purpose of this biochemical assay was to measure the ability of test compounds to facilitate ternary complex formation between a nucleotide-loaded K-Ras isoform and Cyclophilin A; the resulting ternary complex disrupts binding to a BRAF^RBDD construct, inhibiting K-Ras signaling through a RAF effector. Data is reported as IC50 values.

[3] = target: KRAS G12S (Homo sapiens, UniProt P01116+P62937, G12S); experiment: as above; type: biochemical; settings: read-out: KRAS G12S FRET data, IC50
Chain of KRAS G12S (P01116 1-169 isoform P01116-2 G12S limits assumed): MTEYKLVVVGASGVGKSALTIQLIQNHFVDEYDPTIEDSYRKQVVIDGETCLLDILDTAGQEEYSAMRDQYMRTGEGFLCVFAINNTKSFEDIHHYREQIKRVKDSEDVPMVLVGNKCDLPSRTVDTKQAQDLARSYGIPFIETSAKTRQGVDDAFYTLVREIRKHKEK
Chain of KRAS G12S (P62937 whole entry): as the sequence (P62937 whole entry) above
Text: as §1, §2, §3, §4

[4] = target: KRAS WT (Homo sapiens, UniProt P01116+P62937); experiment: as above; type: biochemical; settings: KRAS WT; read-out: KRAS WT FRET data IC50
Chain of KRAS WT (P01116 1-169 isoform P01116-2 limits assumed): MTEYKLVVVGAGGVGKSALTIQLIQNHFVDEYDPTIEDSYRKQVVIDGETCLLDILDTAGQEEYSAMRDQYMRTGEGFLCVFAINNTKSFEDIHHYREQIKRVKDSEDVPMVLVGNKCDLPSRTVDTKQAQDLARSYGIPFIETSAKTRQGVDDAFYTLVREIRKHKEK
Chain of KRAS WT (P62937 whole entry): as the sequence (P62937 whole entry) above
Text: as §1, §2, §3, §4

[5] = target: KRAS G13C (Homo sapiens, UniProt P01116+P62937, G13C); experiment: as above; type: biochemical
Chain of KRAS G13C (P01116 1-169 isoform P01116-2 G13C): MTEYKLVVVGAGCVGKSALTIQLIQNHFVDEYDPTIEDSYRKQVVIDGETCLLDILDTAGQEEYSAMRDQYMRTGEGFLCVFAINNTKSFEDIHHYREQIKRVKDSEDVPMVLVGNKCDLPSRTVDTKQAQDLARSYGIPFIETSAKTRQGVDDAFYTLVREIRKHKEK
Chain of KRAS G13C (P62937 whole entry): as the sequence (P62937 whole entry) above
Text: as §1, §2, §3, §4

[6] = target: KRAS G12V (Homo sapiens, UniProt P01116+P62937, G12V); experiment: as above; type: biochemical; settings: KRAS G12V; read-out: KRAS G12V FRET data IC50
Chain of KRAS G12V (P01116 1-169 isoform P01116-2 G12V limits assumed): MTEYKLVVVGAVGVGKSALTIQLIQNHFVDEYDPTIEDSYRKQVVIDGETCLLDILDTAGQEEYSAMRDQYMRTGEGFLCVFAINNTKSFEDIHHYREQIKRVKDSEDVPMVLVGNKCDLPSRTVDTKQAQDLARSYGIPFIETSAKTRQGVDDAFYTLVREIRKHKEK
Chain of KRAS G12V (P62937 whole entry): as the sequence (P62937 whole entry) above
Text: as §1, §2, §3, §4

[7] = target: KRAS G12D (Homo sapiens, UniProt P01116+P62937, G12D); experiment: as above; type: biochemical; settings: read-out: KRAS G12D FRET data, IC50
Chain of KRAS G12D (P01116 1-169 isoform P01116-2 G12D limits assumed): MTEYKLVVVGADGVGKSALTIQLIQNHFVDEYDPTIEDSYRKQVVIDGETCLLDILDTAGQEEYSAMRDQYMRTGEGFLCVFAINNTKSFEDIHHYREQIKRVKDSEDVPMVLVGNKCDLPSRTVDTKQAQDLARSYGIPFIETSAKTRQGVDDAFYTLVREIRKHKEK
Chain of KRAS G12D (P62937 whole entry): as the sequence (P62937 whole entry) above
Text: as §1, §2, §3, §4

[8] = target: KRAS G12C (Homo sapiens, UniProt P01116+P62937, G12C); experiment: as above; type: biochemical
Chain of KRAS G12C (P01116 1-169 isoform P01116-2 G12C): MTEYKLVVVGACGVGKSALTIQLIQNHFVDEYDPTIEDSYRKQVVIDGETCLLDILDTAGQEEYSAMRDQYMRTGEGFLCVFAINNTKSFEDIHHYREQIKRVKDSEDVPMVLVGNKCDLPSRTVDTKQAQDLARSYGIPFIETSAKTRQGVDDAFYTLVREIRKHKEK
Chain of KRAS G12C (P62937 whole entry): as the sequence (P62937 whole entry) above
Text: as §1, §2, §3, §4

[9] = target: NRAS G12C (Homo sapiens, UniProt P01111+P62937, G12C); experiment: as above; type: biochemical; settings: NRAS G12C; read-out: NRAS G12C FRET data IC50
Chain of NRAS G12C (P01111 whole entry G12C): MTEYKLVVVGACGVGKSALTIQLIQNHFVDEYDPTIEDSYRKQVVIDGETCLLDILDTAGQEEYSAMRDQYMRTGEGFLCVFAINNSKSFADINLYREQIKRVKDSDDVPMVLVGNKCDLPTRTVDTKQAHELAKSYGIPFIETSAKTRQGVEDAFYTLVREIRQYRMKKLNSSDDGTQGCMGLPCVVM
Chain of NRAS G12C (P62937 whole entry): as the sequence (P62937 whole entry) above
Text: as §1, §2, §3, §4

[10] = NCI-H358, H358, K-Ras G12C, read-out: Additional H358 Cell Viability assay data (K-Ras G12C, IC50)
[11] = KRAS G13C, read-out: KRAS G13C FRET data IC50
[12] = KRAS G12C, read-out: KRAS G12C FRET data IC50
[13] = read-out: KRAS G13C FRET data, IC50
[14] = read-out: KRAS G12C FRET data, IC50
[15] = NCI-H358, 120 h, 5-day treatment, read-out: H358 Cell Viability assay data (K-Ras G12C, IC50)

Row | Compound | IC50 [1, 10] [nM] | IC50 [2] | IC50 [3] | IC50 [4] | IC50 [6] | IC50 [7] | IC50 [9] | other results
1 | CCn1c(-c2cccnc2[C@H](C)OC)c2c3cc(ccc31)-c1cccc(c1)C[C@H](NC(=O)[C@H](C(C)C)N(C)C(=O)[C@H]1CCN(C(=O)/C=C/CN3CC(OC)C3)C1)C(=O)N1CCC[C@H](N1)C(=O)OCC(C)(C)C2 (atropisomer, axis not shown) [Example A204] | 10 to 100 |  |  |  |  |  |  | 
2 | C=CC(=O)N1CC[C@H](C(=O)N(C)[C@H](C(=O)N[C@H]2Cc3cc(O)cc(c3)-c3ccc4c(c3)c(c(-c3cccnc3[C@@H](OC)C3CC3)n4CC)CC(C)(C)COC(=O)[C@@H]3CCCN(N3)C2=O)C(C)C)C1 (atropisomer, axis not shown) [Example A206] | 100 to 1000 |  |  |  |  |  |  | 
3 | C=CC(=O)N1CC[C@H](C(=O)N(C)[C@H](C(=O)N[C@H]2C[C@H]3CN(CCO3)c3ccc4c(c3)c(c(-c3cccnc3[C@H](C)OC)n4CC)CC(C)(C)COC(=O)[C@@H]3CCCN(N3)C2=O)C(C)C)C1 (atropisomer, axis not shown) [Example A378] | 100 to 1000 |  |  |  |  |  |  | 
4 | C=CC(=O)N1CC[C@H](C(=O)N(C)[C@H](C(=O)N[C@H]2Cc3cc(O)cc(c3)-c3ccc4c(c3)c(c(-c3ccccc3CCOC)n4C(C)(C)C#N)CC(C)(C)COC(=O)[C@@H]3CCCN(N3)C2=O)C(C)C)C1 [Example A34] | 10 to 100 |  |  |  |  |  |  | 
5 | CCn1c(-c2ccccc2CCOC)c2c3cc(ccc31)-c1cc(O)cc(c1)C[C@H](NC(=O)[C@H](C(C)C)N(C)C(=O)[C@H]1CCN(C(=O)C#CCN(C)C)C1)C(=O)N1CCC[C@H](N1)C(=O)OCC(C)(C)C2 [Example A038] |  | 1000 to 10000 nM | 1 to 10 µM and > 10 µM | 1000 to 10000 nM and > 10000 nM | 1000 to 10000 nM and > 10000 nM | 1 to 10 µM | < 10 nM | IC50 [5, 11]: 100 to 1000 nM and 10 to 100 nM; IC50 [8, 12]: 10 to 100 nM and < 10 nM
6 | C=CS(=O)(=O)N1CC[C@H](C(=O)N(C)[C@H](C(=O)N[C@H]2Cc3cc(O)cc(c3)-c3ccc4c(c3)c(c(-c3cccnc3COC)n4CC)CC(C)(C)COC(=O)[C@@H]3CCCN(N3)C2=O)C(C)C)C1 [Example A069] |  | 1000 to 10000 nM | 1 to 10 µM | 100 to 1000 nM | 100 to 1000 nM | > 10 µM | 10 to 100 nM | IC50 [5, 11]: 10 to 100 nM; IC50 [8, 12]: 10 to 100 nM
7 | CCn1c(-c2cnccc2COC)c2c3cc(ccc31)-c1cc(O)cc(c1)C[C@H](NC(=O)[C@H](C(C)C)N(C)CC(F)(F)F)C(=O)N1CCC[C@H](N1)C(=O)OCC(C)(C)C2 [Example A77] |  | 1000 to 10000 nM | > 10 µM | > 10000 nM | > 10000 nM | > 10 µM | > 10000 nM | IC50 [5, 13]: 1000 to 10000 nM; IC50 [8, 14]: 1000 to 10000 nM
8 | CCn1c(-c2cnccc2COC)c2c3cc(ccc31)-c1cc(O)cc(c1)C[C@H](NC(=O)[C@H](C(C)C)N(C)C(=O)OC1CNC1)C(=O)N1CCC[C@H](N1)C(=O)OCC(C)(C)C2 [Example A81] |  | 100 to 1000 nM | 0.1 to 1 µM | 100 to 1000 nM | 1000 to 10000 nM | 0.1 to 1 µM | 100 to 1000 nM | IC50 [5, 13]: 100 to 1000 nM; IC50 [8, 14]: 100 to 1000 nM
9 | C=CC(=O)N1CC[C@H](C(=O)N(C)[C@H](C(=O)N[C@H]2Cc3cc(O)cc(c3)-c3ccc4c(c3)c(c(-c3ccncc3COC)n4CC)CC(C)(C)COC(=O)[C@@H]3CCCN(N3)C2=O)C(C)C)C1 [Example A91] | < 10 |  |  |  |  |  |  | 
10 | C=CC(=O)N1CC[C@H](C(=O)N(C)[C@H](C(=O)N[C@H]2Cc3nc(cs3)-c3ccc4c(c3)c(c(-c3cccnc3COC)n4CC)CC(C)(C)COC(=O)[C@@H]3CCCN(N3)C2=O)C(C)C)C1 [Example A094] |  | > 10000 nM | > 10 µM | > 10000 nM | > 10000 nM | > 10 µM | 100 to 1000 nM | IC50 [5, 11]: > 10000 nM; IC50 [8, 12]: 100 to 1000 nM
11 | CCn1c(-c2cccnc2[C@H](C)OC)c2c3cc(ccc31)-c1cc(O)cc(c1)C[C@H](NC(=O)[C@H](C(C)C)N(C)C(=O)[C@H]1CCN(C(=O)OC(C)C)C1)C(=O)N1CCC[C@H](N1)C(=O)OCC(C)(C)C2 [Example A117] |  | 100 to 1000 nM and > 10000 nM | 0.1 to 1 µM and > 10 µM | 100 to 1000 nM and > 10000 nM | 1000 to 10000 nM and 10 to 100 nM | 1 to 10 µM and > 10 µM | 100 to 1000 nM and 1000 to 10000 nM | IC50 [5, 13]: 100 to 1000 nM and > 10000 nM; IC50 [8, 14]: 1000 to 10000 nM and 10 to 100 nM
12 | CCn1c(-c2cccnc2COC)c2c3cc(ccc31)-c1cc(C)cc(c1)C[C@H](NC(=O)[C@H](C(C)C)N(C)C(=O)[C@H]1CCN(C(=O)C#CCN(C)C)C1)C(=O)N1CCC[C@H](N1)C(=O)OCC(C)(C)C2 [Example A157] | < 10 |  |  |  |  |  |  | 
13 | CCn1c(-c2cccnc2[C@H](C)OC)c2c3cc(ccc31)-c1cc(O)cc(c1)C[C@H](NC(=O)[C@H](C(C)C)N(C)C(=O)[C@@H]1NC[C@@H]3C[C@@H]31)C(=O)N1CCC[C@H](N1)C(=O)OCC(C)(C)C2 [Example A217] |  |  |  |  |  |  |  | IC50 [1, 15]: 10 to 100 nM
14 | CCn1c(-c2cccnc2[C@H](C)OC)c2c3cc(ccc31)-c1cc(O)cc(c1)C[C@H](NC(=O)[C@H](C(C)C)N(C)C(=O)C1CCCC1)C(=O)N1CCC[C@H](N1)C(=O)OCC(C)(C)C2 [Example A219] |  |  |  |  |  |  |  | IC50 [1, 15]: 100 to 1000 nM
15 | CCn1c(-c2cccnc2[C@H](C)OC)c2c3cc(ccc31)-c1csc(n1)C[C@H](NC(=O)[C@H](C(C)C)N1CCC3(CCN(C(=O)OC)C3)C1=O)C(=O)N1CCC[C@H](N1)C(=O)OCC(C)(C)C2 (stereo partly drawn) [Example A221] |  |  |  |  |  |  |  | IC50 [1, 15]: 100 to 1000 nM
16 | CCn1c(-c2cccnc2[C@H](C)OC)c2c3cc(ccc31)-c1cc(O)cc(c1)C[C@H](NC(=O)[C@H](C(C)C)N(C)C(=O)[C@@H]1C[C@@H]1C)C(=O)N1CCC[C@H](N1)C(=O)OCC(C)(C)C2 [Example A223] |  |  |  |  |  |  |  | IC50 [1, 15]: 10 to 100 nM
17 | C=CC(=O)N1CC[C@H](C(=O)N(C)[C@H](C(=O)N[C@H]2Cc3nc(cs3)-c3ccc4c(n3)c(c(-c3cccnc3[C@H](C)OC)n4CC)CC(C)(C)COC(=O)[C@@H]3CCCN(N3)C2=O)C(C)C)C1 [Example A347, (2S)—N-[(7S,13S)-21-ethyl-20-{2-[(1S)-1-methoxyethyl]pyridin-3-yl}-17,17-dimethyl-8,14-dioxo-15-oxa-4-thia-9,21,25,27,28-pentaazapentacyclo[17.5.2.1^{2,5}.1^{9,13}.0^{22,26}]octacosa-1(25),2,5(25),19,22(26),23-hexaen-7-yl]-3-methy-2-{N-methyl-1-[(3S)-1-(prop-2-enoyl)pyrrolidin-3-yl]formamido}butanamide] | 100 to 1000 |  |  |  |  |  |  | 
18 | C=CC(=O)Nc1cnc(C(=O)N(C)[C@H](C(=O)N[C@H]2Cc3cccc(c3)-c3ccc4c(c3)c(c(-c3cccnc3[C@H](C)OC)n4CC)CC(C)(C)COC(=O)[C@@H]3CCCN(N3)C2=O)C(C)C)n1C [Example A525] | < 10 |  |  |  |  |  |  | 
